Literature values as cited in patent US20190374622A1, “COMPOSITION AND METHOD FOR CO-ADMINISTRATION WITH A GROWTH PROMOTANT” (OmniGen Research, LLC, priority 2014, published 2019).
Structures can show the parent of a compound that is named as a salt. Where two headings read alike, the source gives them in different places.

Assays:
[1] = cited from earlier work; for increase in average daily weight gain: last 2 weeks
[2] = cattle, cited from earlier work
[3] = finishing swine; cited from earlier work
[4] = cited from earlier work
[5] = 300 mg per head per day, vs cattle that did not receive it

Row | Structure (SMILES) | increase in average daily weight gain ([1]; hens) [%] | increase in average daily weight gain ([1]; toms) [%] | meat quality, including pH, color and tenderness ([1]; turkeys) | increase in hot carcass weight [2, 5] [pounds] | increase in live weight [2, 5] [pounds] | carcass leanness and yield grade [2] | carcass quality, as measured by marbling score and quality grade [2] | better feed efficiency [3] [%] | fat-free lean gain [3] | increase in average daily gain [3] [%] | increase in carcass weights [3] [pounds] | meat quality [3] | improvement of feed efficiency ([4]; cattle, administered as Zilmax, one study (Intervet/Schering Plough 2010)) [%] | number of Yield Grade 4 and 5 cattle [4] | percentage of Yield Grade 1 cattle [4]
1 | CC(CCc1ccc(O)cc1)NCC(O)c1ccc(O)cc1 (racemic) [Ractopamine hydrochloride, 4-[3-[[2-hydroxy-2-(4-hydroxyphenyl)ethyl]amino]butyl]phenol] | 19 | 13 | no effect | 20 | 22 | improves | no effect | 10 | improve | 10 | 5 | not affecting | – | – | –
2 | CC(C)NC1CCn2c(=O)[nH]c3cccc(c32)C1O (stereo not drawn) [Zilpaterol hydrochloride, 4,5,6,7-tetrahydro-7-hydroxy-6-(isopropylamino)imidazo[4,5,1-jk][1]benzazepin-2(1H)-one] | – | – | – | – | – | – | – | – | – | – | – | – | 3 | cut | increase
